Key:
Format in all cases: cell-based
[1] = tested on: HAP1 MTAP-deleted cell line; test: Viability assay (CellTiter-Glo), HAP1 MTAP-deleted; conditions: HAP1 MTAP-deleted cells, 7 days
Outline: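 HAP1 MTAP-deleted and MTAP-intact cells seeded, then dosed next day (n=3, 0.2% DMSO) and grown 7 days. Viability by CellTiter-Glo luminescence, expressed as % of DMSO control per cell line.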

[2] = tested on: SDMA (PRMT5 activity) in HAP1 MTAP-intact cell line; test: SDMA in-cell western assay, HAP1 MTAP-intact; conditions: SDMA in-cell western, HAP1 MTAP-intact cells, 24 hours compound incubation
[3] = tested on: SDMA (PRMT5 activity) in HAP1 MTAP-deleted cell line; test: SDMA in-cell western assay, HAP1 MTAP-deleted; conditions: for IC50 / IC90: SDMA in-cell western, HAP1 MTAP-deleted cells, 24 hours compound incubation; for Hap1 MTAP intact/deleted ratio: ratio of SDMA IC50 in HAP1 MTAP-intact to HAP1 MTAP-deleted cell line

Row | SMILES | IC50 ([1]; Homo sapiens, 168 h) [nM] | IC50 ([2]; Homo sapiens, HAP1, 24 h) [nM] | IC50 ([3]; Homo sapiens) [nM] | IC90 ([3]; Homo sapiens) [nM] | Hap1 MTAP intact/deleted ratio [3] | IC50 [1] [nM] | IC50 [2] [nM] | IC50 [3] [nM] | IC90 [3] [nM] | IC50 ([2]; Homo sapiens) [nM]
1 | CCc1cc(NC(=O)C(=O)N2C[C@@H](C)CC[C@@H]2c2cccc(OC3CCN(C)CC3)c2)cnc1N [Compound 58, N-(6-amino-5-ethylpyridin-3-yl)-2-((2R,5S)-5-methyl-2-(3-((1-methylpiperidin-4-yl)oxy)phenyl)piperidin-1-yl)-2-oxoacetamide] | < 100 | > 50 | < 5 | < 75 | A (“A” indicates an IC50 ratio greater than or equal to 30 fold) | – | – | – | – | –
2 | COc1ncc(NC(=O)C(=O)N2C[C@@H](C)CC[C@@H]2c2ccc3sc([C@]45CCC(C4)N(C)C5)nc3c2)cc1C(N)=O [Compound 71, 2-methoxy-5-(2-((2R,5S)-5-methyl-2-(2-((4R)-2-methyl-2-azabicyclo[2.2.1]heptan-4-yl)benzo[d]thiazol-5-yl)piperidin-1-yl)-2-oxoacetamido)nicotinamide] | < 100 | > 50 | < 5 | < 75 | B (“B” indicates an IC50 ratio greater than or equal to 15 fold but lower than 30 fold) | – | – | – | – | –
3 | CCc1cc(NC(=O)C(=O)N2C[C@@H](C)CC[C@@H]2c2ccc3nn(CCN(C)C)cc3c2)cnc1N [Compound 72] | < 100 | > 50 | 5 to 50 | > 125 | A (“A” indicates an IC50 ratio greater than or equal to 30 fold) | – | – | – | – | –
4 | CCc1cc(NC(=O)C(=O)N2C[C@@H](C)CC[C@@H]2c2ccc3cn(C4CCN(C)C(C)(C)C4)nc3c2)cnc1N (single isomer, unassigned) [Compound 115] | – | – | – | – | – | < 100 | 5 to 50 | < 5 | < 75 | –
5 | CCc1cc(NC(=O)C(=O)N2C[C@@H](C)CC[C@@H]2c2ccc3ccc(C#N)nc3c2)cnc1N [Compound 32, N-(6-amino-5-ethylpyridin-3-yl)-2-((2R,5S)-2-(2-cyanoquinolin-7-yl)-5-methylpiperidin-1-yl)-2-oxoacetamide] | 100 to 1000 | > 50 | 5 to 50 | > 125 | A (“A” indicates an IC50 ratio greater than or equal to 30 fold) | – | – | – | – | –
6 | COc1ncc(NC(=O)C(=O)N2C[C@@H](C)CC[C@@H]2c2ccc3sc(C45CCC(CC4)N(C)C5)nc3c2)cc1C(N)=O [Compound 99, 2-methoxy-5-(2-((2R,5S)-5-methyl-2-(2-(2-methyl-2-azabicyclo[2.2.2]octan-4-yl)benzo[d]thiazol-5-yl)piperidin-1-yl)-2-oxoacetamido)nicotinamide] | < 100 | > 50 | < 5 | < 75 | A (“A” indicates an IC50 ratio greater than or equal to 30 fold) | – | – | – | – | –
7 | CCc1cc(NC(=O)C(=O)N2C[C@@H](C)CC[C@@H]2c2cccc(OCC3CCCN3C)c2)cnc1N (single isomer, unassigned) [Compound 121] | < 100 | > 50 | 5 to 50 | < 75 | B (“B” indicates an IC50 ratio greater than or equal to 15 fold but lower than 30 fold) | – | – | – | – | –
8 | COc1ncc(NC(=O)C(=O)N2C[C@@H](C)CC[C@@H]2c2ccc3cn([C@H]4CCOC4)nc3c2)cc1C(N)=O (racemic) [Compound 97, 2-methoxy-5-[[2-oxo-2-[rac-(2R,5S)-5-methyl-2-(2-tetrahydrofuran-3-ylindazol-6-yl)-1-piperidyl]acetyl]amino]pyridine-3-carboxamide] | 100 to 1000 | > 50 | 5 to 50 | 75 to 125 | A (“A” indicates an IC50 ratio greater than or equal to 30 fold) | – | – | – | – | –
9 | CCc1cc(NC(=O)C(=O)N2C[C@@H](C)CC[C@@H]2c2ccc3sc([C@@H]4C[C@@H](C)CN(C)C4)nc3c2)cnc1N (racemic) [Compound 118, N-(6-amino-5-ethylpyridin-3-yl)-2-((2R,5S)-2-(2-(1,5-dimethylpiperidin-3-yl)benzo[d]thiazol-5-yl)-5-methylpiperidin-1-yl)-2-oxoacetamide] | < 100 | 5 to 50 | < 5 | < 75 | C (“C” indicates an IC50 ratio of less than 15 fold) | – | – | – | – | –
10 | CCc1cc(NC(=O)C(=O)N2C[C@@H](C)CC[C@@H]2c2ccc3c(c2)OC2(CCN(C)CC2)O3)cnc1N [Compound 92, N-(6-amino-5-ethylpyridin-3-yl)-2-((2R,5S)-5-methyl-2-(1′-methylspiro[benzo[d][1,3]dioxole-2,4′-piperidin]-5-yl)piperidin-1-yl)-2-oxoacetamide] | < 100 | – | 5 to 50 | 75 to 125 | A (“A” indicates an IC50 ratio greater than or equal to 30 fold) | – | – | – | – | > 50
11 | COc1ncc(NC(=O)C(=O)N2C[C@@H](C)CC[C@@H]2c2ccc3sc([C@H](C)CN(C)C)nc3c2)cc1C(N)=O [Compound 11, 2-methoxy-5-[[2-oxo-2-[(2R,5S)-5-methyl-2-[2-[(^1S)-2-(dimethylamino)-1-methyl-ethyl]-1,3-benzothiazol-5-yl]-1-piperidyl]acetyl]amino]pyridine-3-carboxamide] | < 100 | > 50 | < 5 | < 75 | A (“A” indicates an IC50 ratio greater than or equal to 30 fold) | – | – | – | – | –
12 | CCc1cc(NC(=O)C(=O)N2C[C@@H](C)CC[C@@H]2c2ccc3cc(C#N)c(C4CCN(C)CC4)nc3c2)cnc1N [Compound 63, N-(6-amino-5-ethylpyridin-3-yl)-2-((2R,5S)-2-(3-cyano-2-(1-methylpiperidin-4-yl)quinolin-7-yl)-5-methylpiperidin-1-yl)-2-oxoacetamide] | < 100 | > 50 | < 5 | < 75 | A (“A” indicates an IC50 ratio greater than or equal to 30 fold) | – | – | – | – | –
13 | COc1ncc(NC(=O)C(=O)N2C[C@@H](C)CC[C@@H]2c2ccc3sc([C@@H]4C[C@@H]5CN(C)C[C@@H]5C4)nc3c2)cc1C(N)=O (single isomer, unassigned) [Compound 82] | < 100 | > 50 | < 5 | < 75 | A (“A” indicates an IC50 ratio greater than or equal to 30 fold) | – | – | – | – | –
14 | CCc1cc(NC(=O)C(=O)N2C[C@@H](C)CC[C@@H]2c2ccc3sc([C@H]4C[C@H](N(C)C)C4)nc3c2)cnc1N (single isomer, unassigned) [Compound 43] | < 100 | > 50 | < 5 | < 75 | A (“A” indicates an IC50 ratio greater than or equal to 30 fold) | – | – | – | – | –
15 | CCc1cc(NC(=O)C(=O)N2C[C@@H](C)CC[C@@H]2c2ccc3cn([C@@H]4CCN(C)C4)nc3c2)cnc1N [Compound 112, N-(6-amino-5-ethylpyridin-3-yl)-2-((2R,5S)-5-methyl-2-(2-((R)-1-methylpyrrolidin-3-yl)-2H-indazol-6-yl)piperidin-1-yl)-2-oxoacetamide] | < 100 | 5 to 50 | < 5 | < 75 | B (“B” indicates an IC50 ratio greater than or equal to 15 fold but lower than 30 fold) | – | – | – | – | –
16 | COc1ncc(NC(=O)C(=O)N2C[C@@H](C)CC[C@@H]2c2ccc3sc([C@H]4C[C@@H](N(C)C)C4)nc3c2)cc1C(N)=O (single isomer, unassigned) [Compound 24] | < 100 | > 50 | < 5 | < 75 | A (“A” indicates an IC50 ratio greater than or equal to 30 fold) | – | – | – | – | –
17 | CCc1cc(NC(=O)C(=O)N2C[C@@H](C)CC[C@@H]2c2ccc3sc(CC4(C)CCN(C)CC4)nc3c2)cnc1N [Compound 6, N-(6-amino-5-ethylpyridin-3-yl)-2-((2R,5S)-2-(2-((1,4-dimethylpiperidin-4-yl)methyl)benzo[d]thiazol-5-yl)-5-methylpiperidin-1-yl)-2-oxoacetamide] | < 100 | 5 to 50 | < 5 | < 75 | B (“B” indicates an IC50 ratio greater than or equal to 15 fold but lower than 30 fold) | – | – | – | – | –
18 | CCc1cc(NC(=O)C(=O)N2C[C@@H](C)CC[C@@H]2c2ccc3sc([C@@H]4CN(C)C(C)(C)C4)nc3c2)cnc1N (single isomer, unassigned) [Compound 56] | < 100 | 5 to 50 | < 5 | < 75 | B (“B” indicates an IC50 ratio greater than or equal to 15 fold but lower than 30 fold) | – | – | – | – | –
19 | CCc1cc(NC(=O)C(=O)N2C[C@@H](C)CC[C@@H]2c2ccc3cn([C@H]4CCN(C)C[C@H]4C)nc3c2)cnc1N [Compound 42] | < 100 | > 50 | < 5 | < 75 | B (“B” indicates an IC50 ratio greater than or equal to 15 fold but lower than 30 fold) | – | – | – | – | –
20 | COc1ncc(NC(=O)C(=O)N2C[C@@H](C)CC[C@@H]2c2ccc3sc([C@H]4CN(C)CC4(C)C)nc3c2)cc1C(N)=O (single isomer, unassigned) [Compound 36] | < 100 | > 50 | < 5 | < 75 | A (“A” indicates an IC50 ratio greater than or equal to 30 fold) | – | – | – | – | –
